Our source for the melting point values is a melting point compilation (Tetko et al.; mined from patent text by program, amines drawn as free bases though some values may be those of a salt).

The melting point is the temperature of the solid-liquid transition. With `CCNC(=O)c1c(F)cccc1[Si](C)(C)C`, the melting point was in the range of 86 to 87 °C. For the compound `CCCCCCCc1c(C(=O)OCC)[nH]c(C)c1C`, the melting point lay in the range of 68 to 69 °C.

On to `CCC(=O)c1c(SC)sc(C#N)c1CC`, for which the melting point was in the range of 66 to 67 °C. With `O=C1CCCC1n1nc(-c2c(-c3ccccc3)nn3ccccc23)ccc1=O` (stereo not drawn), the melting point lay in the range of 167 to 168 °C. Turning to `CC1(C)CCC(C)(C)c2cc(C(=O)C=Cc3ccc(C(=O)O)c(O)c3)ccc21`, the melting point lay in the range of 260 to 261 °C. Under `CCCc1c2c(cc3c(=O)cc(C(=O)OCC)oc13)CC(C(=O)OCC)CC2` (stereo not drawn) stands 89.5 to 90.5 °C.

On to `CN(Cc1ccccc1)c1ccc(C(=O)c2ccccc2)cc1[N+](=O)[O-]`, for which the melting point stood at 99.5 °C. For the compound `Cc1ccc(COc2ccc3c(c2)c(C=CC(=O)O)cn3CC(=O)N(C)CCc2ccccc2)cc1`, the melting point is 164 to 166 °C. `O=C(Sc1ccc(O)cc1)c1ccc(CSc2ccc(O)cc2)cc1` returned a melting point of 202 to 209 °C. `CCCC1c2c(ccc(C(C)=O)c2O)OC1CSc1ccc(C(=O)CCC(=O)O)cc1` (stereo not drawn) returned a melting point of 110 to 112 °C. With `COc1ccc(CNc2cc(Cl)ncc2C(=O)NCc2ncccn2)cc1Cl` the figure was 134 to 136 °C; with `CC(=O)N(C)c1cnc2ccc(Cl)cc2c1-c1ccccc1`, 268 to 270 °C. `COc1ccc(CN(C)CCOc2ccc(NC(=O)c3cccc4c(=O)cc(-c5ccccc5)[nH]c34)cc2)cc1OC` came in with a melting point of 175 °C. Compound `O=C(SCSc1c[nH]nn1)c1ccccc1` returned a melting point of 72.5 to 73.5 °C. Compound `COc1ccc2sc(C(=O)OCC(C)(C)C(O)C(C)(C)C)cc2c1` (stereo not drawn) displayed a melting point of 121 to 122 °C.

For `CSC(=S)Nc1ccc(C)cc1C(=O)O`, the melting point came to 199 °C.

Turning to `Cc1ccc(-c2cn(C)cc(-c3ccccc3)c2=O)cc1Br`, the melting point was in the range of 168 to 170 °C. Under `COCN(c1c(C)ccc2ccccc12)C1COC(=O)C1` (stereo not drawn) stands 42 to 46 °C. Regarding `CC1(C)OC(=C(C#N)C#N)C(C#N)=C1c1ccc(C2CCCCCN2)s1` (stereo not drawn), the melting point was determined as 264 °C. The compound `CC(NC(=O)C(CS)C(C)c1ccc(F)c(F)c1)C(=O)O` (stereo not drawn) registered a melting point of 61 °C. With `O=C(N=C1SCCN1Cc1ccc(Cl)nc1)c1ccccc1` the figure was 133 °C; with `Cc1cccc(C)c1-n1cnc(N)nc1=O`, 248 to 250 °C; with `O=C(c1ccc(-c2ccccn2)s1)N1CCCCc2sccc21`, 150 to 154 °C. As to `C=CC(=O)Oc1ccc(CNS(C)(=O)=O)cc1`, the melting point was 112 to 115 °C.

For `CS(=O)(=O)Oc1ccc(-c2sc3cc(OS(C)(=O)=O)ccc3c2C(=O)c2ccc(OCCBr)cc2)cc1`, the melting point was in the range of 105 to 107 °C. Compound `CS(=O)(=O)c1ccc(-c2cnn(-c3ccsc3)c(=O)c2-c2ccc(F)cc2)cc1` displayed a melting point of 200 to 202 °C. As for `Nc1ccc(-n2ncnc2-c2ccc(F)cc2)cc1`, the melting point was in the range of 147 to 150 °C. In turn, `C[C@H](c1ccccc1)N1C(=O)c2cccc([N+](=O)[O-])c2C1=O` yielded a melting point of 115 to 117 °C. With `CC1=CCN(C)C2C1N2C#N` (stereo not drawn) the figure was 117 °C; with `Cc1nc2ccc(Sc3cccc4cnccc34)cc2o1`, 140 to 142 °C; with `CN1CCCCC1COC(=O)c1cccc(NC(=O)C(CS)Cc2ccccc2)c1` (stereo not drawn), 68 to 69 °C. `O=C(Nc1ccccc1C(=NC1CCN(Cc2ccccc2)CC1)c1ccccc1)C(Cl)(Cl)Cl`: the melting point lay in the range of 151 to 152 °C.

`CCc1nc2c(N)nc3cc(OCC(=O)N4CCOCC4)ccc3c2n1CCOc1ccccc1` had a melting point of 208 to 209 °C.

For the compound `CCCc1cc(O)nc(-c2ccncc2)n1`, the melting point was 173 to 174 °C. As to `CS(=O)(=O)c1ccc(-c2sc(Nc3ccc(C#N)cc3)nc2-c2ccc(F)cc2)cc1`, the melting point was 273 to 274 °C.

`Cc1cccc(C(=O)O)c1N(C)S(=O)(=O)c1ccc(OCCCCNC(=O)c2ccc3c(c2)OCO3)cc1` yielded a melting point of 110 °C. `COc1ccc(C(CC#N)CC#N)cc1O` displayed a melting point of 90 to 92 °C. Compound `CC(C)[C@H](NC(=O)N(C)Cc1ccccn1)C(=O)N[C@@H](Cc1ccccc1)[C@@H](O)[C@@H](O)[C@H](Cc1ccccc1)NC(=O)OCc1cccnc1` yielded a melting point of 84 to 85 °C.

In turn, `CCc1nsc(C(=O)NC(C)C)c1C(=O)O` showed a melting point of 138 to 140 °C. `NC(=S)N(c1ccccc1)c1cccc(NNC=O)c1` showed a melting point of 143 to 145 °C. Under `CC(C)NC1=NS(=O)(=O)c2c(Cl)cccc2N1` stands 144 to 146 °C; under `COc1cc(C(=O)N(C(C)C)C2CCCCC2)ccc1Cn1cnc2ncccc21`, 189 to 191 °C; under `O=C(NCCc1ccc(Cl)cc1)c1ncccc1O`, 91 to 93 °C.

Compound `CC1(C)Oc2ccc(C#N)cc2C(n2ccccc2=O)C1=O` (stereo not drawn) gave a melting point of 178 °C. With `CNC(=O)Cn1nc(-c2ccccc2)c(-c2ccccc2)c(C#N)c1=O` the figure was 292 to 294 °C.

`Cc1ccc(C2=CCC(O)CC2)cc1` (stereo not drawn): the melting point lay within 96.5 to 97.5 °C.

As to `CCOc1ccc2c(c1)n(C1CCOCC1)c(=O)n2S(=O)(=O)c1ccc(C(=O)OC)cc1OC`, the melting point amounted to 165 °C. `CCOC(=O)C1=C(C)NC(c2csc(C)n2)=NC1c1cccc(Cl)c1` (stereo not drawn) showed a melting point of 143 to 144 °C.

The compound `O=C(O)COc1ccc2c(c1)-c1nc(S(=O)(=O)C(c3ccccc3)c3ccccc3)sc1CC2` returned a melting point of 169 to 170 °C. The compound `COC1(c2cccc(Sc3ccc(C(C)=NO)cc3)c2)CCN(CC(F)(F)F)C1` (stereo not drawn) displayed a melting point of 86 to 88 °C. In the case of `CC(C)c1nc(COC(N)=O)n(Cc2ccccn2)c1Sc1cc(Cl)cc(Cl)c1`, the melting point lay in the range of 127 to 130 °C.

Take `COC(=O)C(C#N)=Cc1cccs1`: the melting point was 104 to 106 °C. Turning to `CCOC(=O)c1cccc(-c2nc(-c3ccc(C(C)C)cc3)cs2)c1`, the melting point lay in the range of 91 to 92 °C. With `Cc1ccc(-n2nc(C(=O)NC(C)(C)C)c3c2C2CCC3C2)cc1` (stereo not drawn) the figure was 135 to 137 °C; with `O=Cc1ccccc1Oc1ccc(Cl)cc1[N+](=O)[O-]`, 100 to 101 °C. On to `CSc1ccc(N)c(C(=O)NN)c1`, for which the melting point was in the range of 124 to 127 °C. Regarding `COC(=O)c1cc2ccoc2s1`, the melting point fell in the range of 86 to 88 °C. Under `Cc1ccc(C)c(NC(=O)C(C)c2ccc(N)c(N)c2)c1` (stereo not drawn) stands 120 to 121 °C; under `COc1cccc(Nc2nc(NC(=O)C(C)(C)C)nc3[nH]c4ccccc4c23)c1`, 267 °C; under `COc1ccc(-c2cncn2-c2ccc(S(C)(=O)=O)cc2)c(Cl)n1`, 192 to 198 °C. The compound `CC(CSC(=S)c1ccccc1)C(=O)N1CCCC1C(=O)O` (stereo not drawn) registered a melting point of 157 to 158 °C. In turn, `CS(=O)(=O)NCc1cccc(-c2csc(N=C(N)N)n2)n1` yielded a melting point of 196 °C.

Compound `CCCCc1ccc2c(c1)-c1[nH]c(C(=O)OC)cc(=O)c1CS2` had a melting point of 144 to 146 °C.

Compound `COc1ccc(C[C@@H]2CCc3ncc(C)cc3C2)cc1` returned a melting point of 46 to 48 °C. Compound `CCc1c(CCN2CCC(c3nsc4cc(F)ccc34)CC2)sc2c1CCN(C(C)=O)C2` yielded a melting point of 156 to 160 °C. `COc1ccccc1N1CCN(CCn2cnc3sc4c(c3c2=O)CCN(C(C)=O)C4)CC1`: the melting point is 170 to 172 °C. Compound `C#CCOc1ccccc1OS(=O)(=O)NC(=O)Nc1nc(OC)cc(OC)n1` displayed a melting point of 125 to 126 °C. On to `CC(C)(C)OC(=O)N1CCC(OCc2ccccc2)C1CC(O)Cn1cnc2cccc(C(F)(F)F)c2c1=O` (stereo not drawn), for which the melting point stood at 224 °C. As to `O=[N+]([O-])c1cccc(C(O)C(Cl)(Cl)Cl)c1` (stereo not drawn), the melting point fell in the range of 91 to 95 °C.

For the compound `COc1cc(-c2nc(-c3ccc(N(C)C)cc3)c(C)[nH]2)ccc1OC(C)=O`, the melting point was in the range of 253 to 256 °C. With `CCSC1=CCC2C3CCC4=CC(=O)C=CC4(C)C3C(O)CC12C` (stereo not drawn) the figure was 216 to 218 °C; with `O=C(c1ccncc1)N1CCC(=C2c3ccccc3CCn3ccnc32)CC1`, 207 to 209 °C. On to `CN1CCC(C(=NNc2ccc(F)cc2)c2ccccc2F)CC1`, for which the melting point was 125 to 126 °C.

With `COC(=O)c1csc(-c2ccc(C#N)cc2)n1`, the melting point lay in the range of 107 to 108 °C.

With `COc1ccc2cccnc2c1[N+](=O)[O-]`, the melting point came to 178 °C.

Compound `O=C(Nc1ccc(-n2nc(C(F)(F)F)cc2C(F)(F)F)cc1)c1ccc2c(c1)OCO2` gave a melting point of 222 to 224 °C. The compound `CS(=O)(=O)c1ccc(-c2oc(-c3ccccc3)nc2-c2ccc(F)cc2)cc1` displayed a melting point of 204 to 205 °C. `C[C@H](NP(=O)(Cc1ccccc1)Cc1ccccc1)C(=O)N1CCC[C@H]1C(=O)N1CCC[C@H]1C(N)=O`: the melting point was found to be 89 °C. With `O=C(Nc1ccc(Oc2ccccc2)cc1)N1CCN(c2ncnc3ccccc23)CC1` the figure was 74 to 75 °C; with `Cc1cc(N)nc(CCc2nc3cc(-c4ccc(C(F)(F)F)cc4)cnc3[nH]2)c1`, 170 °C; with `O=C(c1ccc[nH]1)c1cccn1N1C(=O)c2ccccc2C1=O`, 204 to 206 °C. As for `CN1C(=O)CCc2cc(N3C[C@H](C(N)=O)OC3=O)cc(F)c21`, the melting point lay within 260 to 262 °C. `CC(C)(C)c1ccc2c(c1)C=C(C(=O)O)C(C(F)(F)F)S2` (stereo not drawn) yielded a melting point of 184 to 185 °C. The compound `C#CCN(Cc1ccc2nc(C)[nH]c(=O)c2c1)c1ccc(C(=O)NCc2cccc([N+](=O)[O-])c2)c(N)c1` had a melting point of 86 to 92 °C. With `OC(CNCCCc1ccc(OCCOCCc2ccccc2)cc1)COc1ccccc1` (racemic) the figure was 76 to 78 °C. `CCOCc1cnc2c(NC(=O)c3c(Cl)cccc3Cl)cccc2c1N1CCN(C)C1=O` returned a melting point of 173 to 177 °C.

`CCSc1ccc(-c2coc3ccc(-c4nnc(C)o4)cc23)cc1` showed a melting point of 144 to 145 °C. In turn, `CCOCn1c(C(F)(F)F)c(C#N)c2ccc(Cl)cc21` returned a melting point of 83 to 86 °C.
